The record followed here is ChEMBL document CHEMBL1153388, “N(epsilon)-thioacetyl-lysine-containing tri-, tetra-, and pentapeptides as SIRT1 and SIRT2 inhibitors” (J Med Chem, 2009).

pIC50: −log10 of the molar value. Where a SMILES comes first, the peptide text is derived from it. [ ]: non-standard residue; d: D form. Lys(Thioacetyl) = CC(=S)NCCCC[C@H](N)C(=O)O

What is called pIC50 is −log10 of the IC50, conventionally taken in molar units. For orientation: inhibition means the percentage by which the read-out fell short of the control.

In assay [1] the target is T1, NAD-dependent protein deacetylase sirtuin-2 (Homo sapiens, UniProt Q8IXJ6).
T1 sequence (Q8IXJ6 whole entry): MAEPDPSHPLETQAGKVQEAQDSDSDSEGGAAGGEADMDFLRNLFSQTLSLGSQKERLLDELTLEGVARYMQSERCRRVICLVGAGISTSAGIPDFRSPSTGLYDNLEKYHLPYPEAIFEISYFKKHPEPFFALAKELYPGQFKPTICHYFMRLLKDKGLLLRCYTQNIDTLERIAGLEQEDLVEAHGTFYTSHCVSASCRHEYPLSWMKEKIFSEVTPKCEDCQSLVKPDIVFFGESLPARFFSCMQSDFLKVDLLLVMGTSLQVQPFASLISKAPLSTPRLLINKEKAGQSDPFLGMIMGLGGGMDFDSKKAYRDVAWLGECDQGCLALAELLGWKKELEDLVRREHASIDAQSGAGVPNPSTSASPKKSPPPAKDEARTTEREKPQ
Kind of assay: Inhibition of recombinant SIRT2 preincubated for 5 mins before addition of substrate measured after 3 hrs by fluorescence-based assay.

Assay [2] addresses T2, NAD-dependent protein deacetylase sirtuin-1 (Homo sapiens, UniProt Q96EB6).
T2 sequence (Q96EB6 whole entry): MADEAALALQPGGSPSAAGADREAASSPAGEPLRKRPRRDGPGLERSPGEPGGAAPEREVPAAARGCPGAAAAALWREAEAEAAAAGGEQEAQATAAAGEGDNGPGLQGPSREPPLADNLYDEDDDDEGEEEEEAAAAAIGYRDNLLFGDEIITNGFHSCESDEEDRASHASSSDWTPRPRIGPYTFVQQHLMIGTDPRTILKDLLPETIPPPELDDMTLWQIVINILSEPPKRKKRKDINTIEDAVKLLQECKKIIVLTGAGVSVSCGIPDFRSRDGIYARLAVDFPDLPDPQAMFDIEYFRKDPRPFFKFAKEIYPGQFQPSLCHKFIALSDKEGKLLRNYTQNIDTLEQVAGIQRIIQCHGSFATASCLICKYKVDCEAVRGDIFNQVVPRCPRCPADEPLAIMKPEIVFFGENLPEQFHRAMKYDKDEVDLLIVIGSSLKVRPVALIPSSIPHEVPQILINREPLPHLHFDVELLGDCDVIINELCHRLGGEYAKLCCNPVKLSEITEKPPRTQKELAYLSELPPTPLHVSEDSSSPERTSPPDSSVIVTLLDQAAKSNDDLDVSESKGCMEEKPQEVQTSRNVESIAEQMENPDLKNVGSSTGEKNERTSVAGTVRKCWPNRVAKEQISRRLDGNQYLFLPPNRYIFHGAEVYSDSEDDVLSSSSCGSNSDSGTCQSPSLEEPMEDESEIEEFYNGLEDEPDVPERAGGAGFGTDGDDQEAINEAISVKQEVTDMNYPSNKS
Kind of assay: Inhibition of recombinant SIRT1 preincubated for 5 mins before addition of substrate measured after 1 hr by fluorescence-based assay.

The target of assay [3] is T3, NAD-dependent protein deacetylase sirtuin-2 (Homo sapiens) (UniProt Q8IXJ6).
T3 sequence (whole entry): T1 sequence (Q8IXJ6 whole entry)
Kind of assay: Inhibition of recombinant SIRT2 at 200 uM preincubated for 5 mins before addition of substrate measured after 3 hrs by fluorescence-based assay.

In assay [4] the target is T4, NAD-dependent protein deacetylase sirtuin-1 (Homo sapiens) (UniProt Q96EB6).
T4 sequence (whole entry): T2 sequence (Q96EB6 whole entry)
Kind of assay: Inhibition of recombinant SIRT1 at 200 uM preincubated for 5 mins before addition of substrate measured after 1 hr by fluorescence-based assay.

Assay [5] concerns the target T2, NAD-dependent protein deacetylase sirtuin-1. Kind of assay: Inhibition of GST-tagged SIRT1 expressed in Escherichia coli after 10 mins by Dixon plot.
Assay [6] addresses T1, NAD-dependent protein deacetylase sirtuin-2. Kind of assay: Inhibition of GST-tagged SIRT2 expressed in Escherichia coli after 60 mins by Dixon plot.

Take `CC[C@H](C)[C@H](NC(=O)[C@@H](NC(=O)[C@H](CCCCNC(C)=S)NC(=O)[C@H](C)NC(=O)[C@@H](N)CO)[C@@H](C)O)C(=O)O` (H-SA[Lys(Thioacetyl)]TI-OH): the pIC50 is 5.26 in assay [1] and 6.66 in assay [2].

Take `CC(=S)NCCCC[C@H](NC(=O)[C@@H](N)CC(=O)O)C(=O)N[C@H](C(=O)O)[C@@H](C)O`: the pIC50 in assay [1] was 3.76; in assay [2], 4.92.

Consider `CC[C@H](C)[C@H](NC(=O)[C@@H](NC(=O)[C@H](CCCCNC(C)=S)NC(=O)[C@H](CCCCN)NC(=O)[C@@H](N)CO)[C@@H](C)O)C(=O)O` (H-SK[Lys(Thioacetyl)]TI-OH), for which the pIC50 in assay [1] was 5.16; in assay [2] it was 6.74.

For `CSCC[C@H](NC(=O)[C@H](CC(C)C)NC(=O)[C@H](CCCCNC(C)=S)NC(=O)[C@@H](N)CCCCN)C(=O)O` (H-K[Lys(Thioacetyl)]LM-OH), the values for the pIC50 in assay [1] and in assay [2] were 4.30 and 6.48, respectively.

As for `CC[C@H](C)[C@H](NC(=O)[C@H](C)NC(=O)[C@H](CCCCNC(C)=S)NC(=O)[C@H](CC(=O)O)NC(=O)[C@@H](N)CO)C(=O)O` (H-SD[Lys(Thioacetyl)]AI-OH), the pIC50 was 4.14 in assay [1] and 5.17 in assay [2].

Turning to `CSCC[C@H](NC(=O)[C@H](C)NC(=O)[C@H](CCCCNC(C)=S)NC(=O)[C@H](CCCCN)NC(=O)[C@@H](N)Cc1cnc[nH]1)C(=O)O` (H-HK[Lys(Thioacetyl)]AM-OH), the pIC50 in assay [1] was 5.42; in assay [2] it was 6.74.

As to `CC[C@H](C)[C@H](NC(=O)[C@H](CC(C)C)NC(=O)[C@H](CCCCNC(C)=S)NC(=O)[C@H](CC(=O)O)NC(=O)[C@@H](N)CO)C(=O)O` (H-SD[Lys(Thioacetyl)]LI-OH), the pIC50 was 3.62 in assay [1] and 4.63 in assay [2].

With `CC[C@H](C)[C@H](NC(=O)[C@@H](NC(=O)[C@H](CCCCNC(C)=S)NC(=O)[C@H](CC(=O)O)NC(=O)[C@@H](N)Cc1cnc[nH]1)[C@@H](C)O)C(=O)O` (H-HD[Lys(Thioacetyl)]TI-OH), the results for the pIC50 in assay [1] and in assay [2] were 4.51 and 5.37, respectively.

For `CC(=S)NCCCC[C@H](NC(=O)[C@@H](N)CCCCN)C(=O)N[C@@H](CC(C)C)C(=O)O`, the values for the pIC50 in assay [1] and in assay [2] were 3.82 and 6.24, respectively.

With `CC[C@H](C)[C@H](NC(=O)[C@@H](NC(=O)[C@H](CCCCNC(C)=S)NC(=O)[C@@H](N)CC(=O)O)[C@@H](C)O)C(=O)O` (H-D[Lys(Thioacetyl)]TI-OH), the pIC50 in assay [1] was 4.08; in assay [2], 5.35.

With `CSCC[C@H](NC(=O)[C@@H](NC(=O)[C@H](CCCCNC(C)=S)NC(=O)[C@H](CC(=O)O)NC(=O)[C@@H](N)CO)[C@@H](C)O)C(=O)O` (H-SD[Lys(Thioacetyl)]TM-OH), the pIC50 in assay [1] is 4.97; in assay [2] it was 5.85.

`CC[C@H](C)[C@H](NC(=O)[C@@H](NC(=O)[C@H](CCCCNC(C)=S)NC(=O)[C@H](CC(=O)O)NC(=O)[C@H](C)N)[C@@H](C)O)C(=O)O` (H-AD[Lys(Thioacetyl)]TI-OH): the pIC50 is 4.43 in assay [1] and 5.49 in assay [2].

As for `CC(=S)NCCCC[C@H](NC(=O)[C@H](CC(=O)O)NC(=O)[C@@H](N)CO)C(=O)N[C@H](C(=O)N[C@@H](C)C(=O)O)[C@@H](C)O` (H-SD[Lys(Thioacetyl)]TA-OH), the values for the pIC50 in assay [1] and in assay [2] were 4.07 and 5.06, respectively.

`CSCC[C@H](NC(=O)[C@H](CC(C)C)NC(=O)[C@H](CCCCNC(C)=S)NC(=O)[C@H](CC(=O)O)NC(=O)[C@@H](N)CO)C(=O)O` (H-SD[Lys(Thioacetyl)]LM-OH): the pIC50 is 4.03 in assay [1] and 4.97 in assay [2].

With `CSCC[C@H](NC(=O)[C@H](CC(C)C)NC(=O)[C@H](CCCCNC(C)=S)NC(=O)[C@H](CCCCN)NC(=O)[C@H](C)N)C(=O)O` (H-AK[Lys(Thioacetyl)]LM-OH), the pIC50 in assay [1] is 5.07; in assay [2], 6.42.

`CC[C@H](C)[C@H](NC(=O)[C@@H](NC(=O)[C@H](CCCCNC(C)=S)NC(=O)[C@H](CC(=O)O)NC(=O)[C@@H](N)CO)[C@@H](C)O)C(=O)O` (H-SD[Lys(Thioacetyl)]TI-OH): the figures for the pIC50 in assay [1] and in assay [2] were 4.54 and 5.30, respectively.

With `CC(=S)NCCCC[C@H](NC(=O)[C@H](CC(=O)O)NC(=O)[C@@H](N)CO)C(=O)O`, the figures for the inhibition in assay [3] and in assay [4] were 13.9% and 11.8%, respectively.

For `CSCC[C@H](NC(=O)[C@H](CC(C)C)NC(=O)[C@H](CCCCNC(C)=S)NC(=O)[C@H](CCCCN)NC(=O)[C@@H](N)Cc1cnc[nH]1)C(=O)O` (H-HK[Lys(Thioacetyl)]LM-OH), the pIC50 in assay [5] was 5.00; in assay [1] it was 5.19; in assay [6] it was 5.00; in assay [2], 6.48.

As for `CC(=S)NCCCC[C@H](NC(=O)[C@H](CC(=O)O)NC(=O)[C@@H](N)CO)C(=O)N[C@H](C(=O)O)[C@@H](C)O` (H-SD[Lys(Thioacetyl)]T-OH), the pIC50 in assay [1] is 4.36; in assay [2], 4.95.

As to `CC[C@H](C)[C@H](NC(=O)[C@@H](NC(=O)[C@H](CCCCNC(C)=S)NC(=O)[C@H](CCCCN)NC(=O)[C@@H](N)Cc1cnc[nH]1)[C@@H](C)O)C(=O)O` (H-HK[Lys(Thioacetyl)]TI-OH), the figures for the pIC50 in assay [1] and in assay [2] were 5.12 and 6.64, respectively.

Take `CC(=S)NCCCC[C@H](NC(=O)[C@H](CCCCN)NC(=O)[C@@H](N)Cc1cnc[nH]1)C(=O)N[C@@H](CC(C)C)C(=O)N[C@@H](C)C(=O)O` (H-HK[Lys(Thioacetyl)]LA-OH): the pIC50 was 4.48 in assay [1] and 6.05 in assay [2].

For `CSCC[C@H](NC(=O)[C@H](CC(C)C)NC(=O)[C@H](CCCCNC(C)=S)NC(=O)[C@H](C)NC(=O)[C@@H](N)Cc1cnc[nH]1)C(=O)O` (H-HA[Lys(Thioacetyl)]LM-OH), the pIC50 in assay [1] is 4.78; in assay [2], 6.26.

Turning to `CC(=S)NCCCC[C@H](NC(=O)[C@H](CCCCN)NC(=O)[C@@H](N)Cc1cnc[nH]1)C(=O)N[C@@H](CC(C)C)C(=O)O` (H-HK[Lys(Thioacetyl)]L-OH), the pIC50 in assay [1] is 4.70; in assay [2], 6.32.
